Experimental data from patent US9567345B2, “Pharmaceutically active pyrazolo-triazine derivatives” (LEAD DISCOVERY CENTER GMBH, priority 2012, dated 2017).

Experiments:
Type in all cases: biochemical
CDK7/CycH/Mat1 = CDK7/CycH/Mat1 (Homo sapiens, UniProt P50613); assay: CDK7 Enzymatic Activity Assay (Lance Kinase Activity Assay, FRET); details: CDK7/CycH/Mat1, 25 μM ATP final; class ranges; read-out: CDK7: IC50 [nM] for CDK7 inhibition
Procedure, shortened: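 TR-FRET (LANCE) kinase assay: CDK7/CycH/Mat1 phosphorylates Ulight-MBP substrate for 1 h at room temperature in pH 7.5 HEPES buffer; detection 1 h with Eu-labelled anti-phospho antibody plus EDTA.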

CDK9/Cyclin T1 = CDK9/Cyclin T1 (Homo sapiens, UniProt P50750); assay: CDK9 Enzymatic Activity Assay (Lance Kinase Activity Assay, FRET); details: Table 5B, class symbols per IC50 [nM] ranges of b581; read-out: CDK9: Selectivity of CDK7 inhibition over CDK9 inhibition
Chain of CDK9/Cyclin T1 (P50750 whole entry): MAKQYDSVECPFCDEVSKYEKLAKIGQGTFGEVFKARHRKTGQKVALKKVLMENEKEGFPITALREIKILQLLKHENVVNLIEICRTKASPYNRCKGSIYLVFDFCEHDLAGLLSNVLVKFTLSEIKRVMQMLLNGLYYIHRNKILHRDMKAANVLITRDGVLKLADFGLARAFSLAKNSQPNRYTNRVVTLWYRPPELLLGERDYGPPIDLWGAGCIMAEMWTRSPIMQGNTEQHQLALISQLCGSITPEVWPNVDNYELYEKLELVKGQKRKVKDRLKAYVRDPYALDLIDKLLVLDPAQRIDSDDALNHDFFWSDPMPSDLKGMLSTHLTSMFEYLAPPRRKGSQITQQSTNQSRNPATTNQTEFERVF
Chain of CDK9/Cyclin T1 (O60563 whole entry partner): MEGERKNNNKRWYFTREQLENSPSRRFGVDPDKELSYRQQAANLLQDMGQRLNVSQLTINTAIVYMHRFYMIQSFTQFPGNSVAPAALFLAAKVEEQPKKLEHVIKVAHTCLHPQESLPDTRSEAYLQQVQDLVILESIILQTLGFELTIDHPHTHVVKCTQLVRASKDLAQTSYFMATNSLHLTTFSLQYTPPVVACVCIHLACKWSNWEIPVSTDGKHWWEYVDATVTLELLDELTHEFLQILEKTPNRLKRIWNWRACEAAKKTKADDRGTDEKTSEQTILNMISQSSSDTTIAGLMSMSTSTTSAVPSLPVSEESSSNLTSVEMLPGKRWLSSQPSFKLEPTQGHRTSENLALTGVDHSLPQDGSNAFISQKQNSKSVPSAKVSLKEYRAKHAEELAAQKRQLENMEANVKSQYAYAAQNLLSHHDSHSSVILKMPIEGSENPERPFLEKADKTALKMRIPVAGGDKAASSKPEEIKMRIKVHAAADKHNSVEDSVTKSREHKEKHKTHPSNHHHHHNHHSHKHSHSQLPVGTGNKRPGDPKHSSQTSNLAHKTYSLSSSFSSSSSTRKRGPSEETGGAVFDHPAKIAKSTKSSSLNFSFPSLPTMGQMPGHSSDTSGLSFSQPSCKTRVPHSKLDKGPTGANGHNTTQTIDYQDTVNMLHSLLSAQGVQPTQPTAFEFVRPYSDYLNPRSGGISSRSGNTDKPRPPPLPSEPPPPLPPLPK
Procedure, shortened: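 CDK9/cyclin T1 phosphorylation of a ULight-MBP peptide was run for 1 h at room temperature in pH 7.5 HEPES buffer with MgCl2, EGTA, DTT and Tween-20. It was followed by 1 h with Eu-anti-phospho-MBP antibody (4 nM) in EDTA detection buffer. TR-FRET loss gave IC50 from 8-point, 1:3 sigmoidal dose-response curves.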

CDK2/CycA = target: T1, CDK2/CycA (Homo sapiens, UniProt P24941); assay: CDK2 Enzymatic Activity Assay (Lance Kinase Activity Assay, FRET); details: Table 5B, class symbols per IC50 [nM] ranges of b581; read-out: CDK2: Selectivity of CDK7 inhibition over CDK2 inhibition
T1 construct: purchased Proqinase
Procedure, shortened: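 Compounds in an 8-step, 1:3 dilution series were incubated 1 h at room temperature with CDK2/CycA, ULight-MBP substrate and ATP in pH 7.5 HEPES buffer.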

Chain of CDK7/CycH/Mat1 (P50613 whole entry): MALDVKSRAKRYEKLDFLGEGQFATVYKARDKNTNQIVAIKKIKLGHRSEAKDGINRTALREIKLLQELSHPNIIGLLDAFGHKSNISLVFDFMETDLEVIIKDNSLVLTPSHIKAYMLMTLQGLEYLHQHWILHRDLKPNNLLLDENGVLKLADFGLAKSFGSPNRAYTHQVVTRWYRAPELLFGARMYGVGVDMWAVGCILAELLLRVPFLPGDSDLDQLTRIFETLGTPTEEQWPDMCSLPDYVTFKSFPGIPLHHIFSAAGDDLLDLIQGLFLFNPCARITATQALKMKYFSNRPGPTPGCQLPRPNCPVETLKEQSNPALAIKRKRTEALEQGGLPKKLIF

`CC(C)c1cnn2c(NCc3ccccc3C3CCCC3)nc(O[C@@H]3CCCNC3)nc12` [(VII-142), (R)-N-(2-cyclopentylbenzyl)-8-isopropyl-2-(piperidin-3-yloxy)pyrazolo[1,5-a][1,3,5]triazin-4-amine] showed an IC50 (CDK7/CycH/Mat1) greater than 25 nM, an IC50 (CDK9/Cyclin T1) greater than 2500 nM and an IC50 (CDK2/CycA) greater than 2500 nM.

`CC(C)c1cnn2c(NCc3ccccc3-n3cccn3)nc(O[C@@H]3CCCNC3)nc12` [(VII-03), (R)-N-(2-(1H-pyrazol-1-yl)benzyl)-8-isopropyl-2-(piperidin-3-yloxy)pyrazolo[1,5-a][1,3,5]triazin-4-amine] showed an IC50 (CDK7/CycH/Mat1) of less than 5 nM, an IC50 (CDK9/Cyclin T1) of 50 to 500 nM and an IC50 (CDK2/CycA) of less than 50 nM.

`CC(C)c1cnn2c(NCc3cccc4nonc34)nc(N3CCC4(CCCN4)CC3)nc12` [(VIII-36), N-(benzo[c][1,2,5]oxadiazol-4-ylmethyl)-8-isopropyl-2-(1,8-diazaspiro[4.5]decan-8-yl)pyrazolo[1,5-a][1,3,5]triazin-4-amine] was tested, and the IC50 (CDK7/CycH/Mat1) was less than 5 nM, the IC50 (CDK9/Cyclin T1) was 500 to 2500 nM and the IC50 (CDK2/CycA) was greater than 2500 nM.

`CC(C)c1cnn2c(NCc3ccccc3CN3CCCC3=O)nc(O[C@@H]3CCCNC3)nc12` [(VII-092), (R)-1-(2-(((8-isopropyl-2-(piperidin-3-yloxy)pyrazolo[1,5-a][1,3,5]triazin-4-yl)amino)methyl)benzyl)pyrrolidin-2-one] was tested, and the IC50 (CDK7/CycH/Mat1) was 10 to 25 nM, the IC50 (CDK9/Cyclin T1) was greater than 2500 nM and the IC50 (CDK2/CycA) was greater than 2500 nM.

In the case of `Cc1ccc(CNc2nc(O[C@@H]3CCCNC3)nc3c(C(C)C)cnn23)c(OC2CCOC2)c1` (stereo partly drawn) [(VII-093), 8-isopropyl-N-(4-methyl-2-((tetrahydrofuran-3-yl)oxy)benzyl)-2-((R)-piperidin-3-yloxy)pyrazolo[1,5-a][1,3,5]triazin-4-amine], the IC50 (CDK7/CycH/Mat1) is reported as greater than 25 nM, the IC50 (CDK9/Cyclin T1) is reported as greater than 2500 nM and the IC50 (CDK2/CycA) is reported as greater than 2500 nM.

Work on `CC(C)c1cnn2c(NCc3ccccc3-n3cccn3)nc(NC3CCNC3)nc12` (stereo not drawn) [(VIII-043), N4-(2-(1H-pyrazol-1-yl)benzyl)-8-isopropyl-N2-(pyrrolidin-3-yl)pyrazolo[1,5-a][1,3,5]triazine-2,4-diamine] yielded an IC50 (CDK7/CycH/Mat1) of 5 to 10 nM, an IC50 (CDK9/Cyclin T1) greater than 2500 nM and an IC50 (CDK2/CycA) of 50 to 500 nM.

With `CC(C)c1cnn2c(NCc3ccccc3S(=O)(=O)N3CCCC3)nc(O[C@@H]3CCCNC3)nc12` [(VII-106), (R)-8-isopropyl-2-(piperidin-3-yloxy)-N-(2-(pyrrolidin-1-ylsulfonyl)benzyl)pyrazolo[1,5-a][1,3,5]triazin-4-amine] the IC50 (CDK7/CycH/Mat1) was less than 5 nM, the IC50 (CDK9/Cyclin T1) was greater than 2500 nM and the IC50 (CDK2/CycA) was 50 to 500 nM.

Molecule `CC(C)c1cnn2c(NCc3ccccc3-n3cccn3)nc(CNCCN3CCCC3)nc12` [(XXX-4), N-(2-(1H-pyrazol-1-yl)benzyl)-8-isopropyl-2-(((2-(pyrrolidin-1-yl)ethyl)amino)methyl)pyrazolo[1,5-a][1,3,5]triazin-4-amine] has an IC50 (CDK7/CycH/Mat1) greater than 25 nM, an IC50 (CDK9/Cyclin T1) greater than 2500 nM and an IC50 (CDK2/CycA) greater than 2500 nM.

Molecule `CC(C)c1cnn2c(NCc3ccccc3-n3cccn3)nc(NCCCN)nc12` [(VIII-039), N4-(2-(1H-pyrazol-1-yl)benzyl)-N2-(3-aminopropyl)-8-isopropylpyrazolo[1,5-a][1,3,5]triazine-2,4-diamine] has an IC50 (CDK7/CycH/Mat1) greater than 25 nM, an IC50 (CDK9/Cyclin T1) greater than 2500 nM and an IC50 (CDK2/CycA) greater than 2500 nM.

With `CC(C)c1cnn2c(NCc3ccccc3-n3cccn3)nc(S[C@@H]3CCCNC3)nc12` [(X-8), (R)-N-(2-(1H-pyrazol-1-yl)benzyl)-8-isopropyl-2-(piperidin-3-ylthio)pyrazolo[1,5-a][1,3,5]triazin-4-amine] the IC50 (CDK7/CycH/Mat1) was less than 5 nM, the IC50 (CDK9/Cyclin T1) was greater than 2500 nM and the IC50 (CDK2/CycA) was 50 to 500 nM.

In the case of `CC(C)c1cnn2c(NCc3cccc4c3cnn4C)nc(O[C@@H]3CCCNC3)nc12` [(VII-33), (R)-8-isopropyl-N-((1-methyl-1H-indazol-4-yl)methyl)-2-(piperidin-3-yloxy)pyrazolo[1,5-a][1,3,5]triazin-4-amine], the IC50 (CDK7/CycH/Mat1) is reported as less than 5 nM, the IC50 (CDK9/Cyclin T1) is reported as less than 50 nM and the IC50 (CDK2/CycA) is reported as less than 50 nM.

`CC(C)COC(=O)Oc1ccccc1CNc1nc(O[C@@H]2CCCNC2)nc2c(C(C)C)cnn12` [(VII-149), (R)-isobutyl (2-(((8-isopropyl-2-(piperidin-3-yloxy)pyrazolo[1,5-a][1,3,5]triazin-4-yl)amino)methyl)phenyl) carbonate] showed an IC50 (CDK7/CycH/Mat1) of 10 to 25 nM, an IC50 (CDK9/Cyclin T1) greater than 2500 nM and an IC50 (CDK2/CycA) greater than 2500 nM.

Molecule `CC(C)c1cnn2c(NCc3ccccc3-n3cccn3)nc(N(C)CCCN3CCCCC3)nc12` [(VIII-049), N4-(2-(1H-pyrazol-1-yl)benzyl)-8-isopropyl-N2-methyl-N2-(3-(piperidin-1-yl)propyl)pyrazolo[1,5-a][1,3,5]triazine-2,4-diamine] has an IC50 (CDK7/CycH/Mat1) greater than 25 nM, an IC50 (CDK9/Cyclin T1) greater than 2500 nM and an IC50 (CDK2/CycA) greater than 2500 nM.

For `CC(C)c1cnn2c(NCc3ccccc3-n3cccn3)nc(N3CCC4(CCCCN4)CC3)nc12` [(VIII-23), N-(2-(1H-pyrazol-1-yl)benzyl)-8-isopropyl-2-(1,9-diazaspiro[5.5]undecan-9-yl)pyrazolo[1,5-a][1,3,5]triazin-4-amine], the IC50 (CDK7/CycH/Mat1) was less than 5 nM, the IC50 (CDK9/Cyclin T1) was 500 to 2500 nM and the IC50 (CDK2/CycA) was 500 to 2500 nM.

With `CC(C)c1cnn2c(NCc3ccccc3-n3cccn3)nc(N3CC(N4CCC(F)(F)C4)C3)nc12` [(VIII-041), N-(2-(1H-pyrazol-1-yl)benzyl)-2-(3-(3,3-difluoropyrrolidin-1-yl)azetidin-1-yl)-8-isopropylpyrazolo[1,5-a][1,3,5]triazin-4-amine] the IC50 (CDK7/CycH/Mat1) was greater than 25 nM, the IC50 (CDK9/Cyclin T1) was greater than 2500 nM and the IC50 (CDK2/CycA) was greater than 2500 nM.

`CC(C)c1cnn2c(NCc3ccccc3-n3cccn3)nc(NCCN3CCCC3)nc12` [(VIII-040), N4-(2-(1H-pyrazol-1-yl)benzyl)-8-isopropyl-N2-(2-(pyrrolidin-1-yl)ethyl)pyrazolo[1,5-a][1,3,5]triazine-2,4-diamine] was tested, and the IC50 (CDK7/CycH/Mat1) was greater than 25 nM, the IC50 (CDK9/Cyclin T1) was greater than 2500 nM and the IC50 (CDK2/CycA) was greater than 2500 nM.

For `CSc1ccccc1CNc1nc(O[C@@H]2CCCNC2)nc2c(C(C)C)cnn12` [(VII-118), (R)-8-isopropyl-N-(2-(methylthio)benzyl)-2-(piperidin-3-yloxy)pyrazolo[1,5-a][1,3,5]triazin-4-amine], the IC50 (CDK7/CycH/Mat1) was 5 to 10 nM, the IC50 (CDK9/Cyclin T1) was 50 to 500 nM and the IC50 (CDK2/CycA) was 50 to 500 nM.

Work on `CC(C)c1cnn2c(NCc3ccccc3-c3ccccc3)nc(OC3CCNCC3)nc12` [(VII-09), N-([1,1′-biphenyl]-2-ylmethyl)-8-isopropyl-2-(piperidin-4-yloxy)pyrazolo[1,5-a][1,3,5]triazin-4-amine] yielded an IC50 (CDK7/CycH/Mat1) of less than 5 nM, an IC50 (CDK9/Cyclin T1) greater than 2500 nM and an IC50 (CDK2/CycA) greater than 2500 nM.

With `CC(C)c1cnn2c(NCc3ccc(F)cc3-n3cccn3)nc(O[C@@H]3CCCNC3)nc12` [(VII-43), (R)-N-(4-fluoro-2-(1H-pyrazol-1-yl)benzyl)-8-isopropyl-2-(piperidin-3-yloxy)pyrazolo[1,5-a][1,3,5]triazin-4-amine] the IC50 (CDK7/CycH/Mat1) was less than 5 nM, the IC50 (CDK9/Cyclin T1) was 50 to 500 nM and the IC50 (CDK2/CycA) was less than 50 nM.

For `CC(C)c1cnn2c(NCc3ccccc3OC(F)F)nc(OC3CCN(C)CC3)nc12` [(VII-72), N-(2-(difluoromethoxy)benzyl)-8-isopropyl-2-((1-methylpiperidin-4-yl)oxy)pyrazolo[1,5-a][1,3,5]triazin-4-amine], the IC50 (CDK7/CycH/Mat1) was less than 5 nM, the IC50 (CDK9/Cyclin T1) was 50 to 500 nM and the IC50 (CDK2/CycA) was 50 to 500 nM.

`CC(C)c1cnn2c(NCc3cccc(Cl)c3Cl)nc(O[C@@H]3CCCNC3)nc12` [(VII-103), (R)-N-(2,3-dichlorobenzyl)-8-isopropyl-2-(piperidin-3-yloxy)pyrazolo[1,5-a][1,3,5]triazin-4-amine] gave an IC50 (CDK7/CycH/Mat1) of 10 to 25 nM, an IC50 (CDK9/Cyclin T1) of 50 to 500 nM and an IC50 (CDK2/CycA) of 50 to 500 nM.
